{
  "source": "patent US6835386B2",
  "about": "“Collar containing a novel gel formulation to control arthropod infestation of animals” (Pfizer Inc., priority 1998, dated 2004)",
  "test": "Miscibility of insecticide in gel formulation",
  "assay_type": "physicochemical",
  "description": "Thus, the improved gel formulation allows permeation of an effective amount of the active ingredient to occur in about 3 days, as compared to about 3 to 5 weeks for prior formulations. As a result of this shortened initial permeation period, the device is ready for use more quickly after manufacture, thereby reducing or eliminating the amount of time that such devices must be stored prior to use. Additional advantages of the device of the present invention include eliminating several of the problems associated with the use of a mineral oil-based gel, such as leaving an oily residue on the animal, the potential for triggering skin irritations, and inhibiting the process of sealing the reservoir. In addition, insecticides such as cypermethrin which are not miscible in mineral oil-based gels are miscible in the improved gel formulation of the present invention.",
  "data": [
    {"smiles": "CC1(C)C(C=C(Cl)Cl)C1C(=O)OC(C#N)c1cccc(Oc2ccccc2)c1", "note": "(centres unmarked) [cypermethrin]", "values": [
      {"measurement": "Miscibility", "setting": "in mineral oil-based gels", "value": "not miscible"},
      {"measurement": "Miscibility", "setting": "in the improved gel formulation of the present invention", "value": "miscible"}
    ]}
  ]
}
